Measurements from patent publication US8969320B2, “Hyaluronic acid derivatives containing groups able to release NO” (Fidia Farmaceutici S.P.A., priority 2007, dated 2015).

Test: Release Test: nitric oxide (NO) release profile by spectrophotometry (Griess test)
Format: physicochemical
Details: 4 mg product in 2.5 ml Griess reagent
Experimental: The nitric oxide (NO) release profile of the compounds of the invention was evaluated by spectrophotometry using the […]. The trend of NO release by the HA-Cys conjugate in S-nitroso form, prepared as described in example 13, is shown here by way of example. Briefly: 4 mg of the product is dissolved in 2.5 ml of Griess reagent in a UV-visible spectrophotometric cuvette. The solution is rapidly homogenised, placed in a double-beam spectrophotometer (Perkin Elmer Lambda 2), and the absorbance trend is measured at 540 nm over time against a blank consisting of Griess solution. The absorbance, i.e. the nitric oxide concentration, increases in the solution with an asymptotic trend, the plateau of which has not yet been reached 25 hrs after release. Assuming first-order kinetics, a decay constant amounting to 70 min^−1 is obtained.

Q: For “HA-Cys-S-nitric Oxide p50 Derivative (750 kDa) [Example 13]”, which “decay constant of NO release, assuming first-order kinetics” value (absorbance at 540 nm over time against Griess solution blank) is on record?
A: Its value is 70 min⁻¹.

Q: What about the “time after release at which the plateau of NO concentration (absorbance) has not yet been reached” value (absorbance at 540 nm, asymptotic trend) of the same substance?
A: Its value is > 25 h.
